According to patent publication US20130244999A1, “Substituted Heterocyclic Compounds” (Incyte Corporation, priority 2008, published 2013):

molecular target: T1, histamine H4 receptor (Homo sapiens, UniProt Q9H3N8); assay: Inhibition of histamine H4 receptor (Table A1; H4 membrane binding assay); conditions: not given
T1 construct: expressed in transfected cells; host or cells: HEK293SFM cells (membrane preparation)
Procedure, shortened: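 Membranes came from recombinant HEK293SFM cells expressing human H4, homogenized in 50 mM Tris-HCl pH 7.5 with protease inhibitors. Nonspecific binding was set with 1000× unlabeled ligand. Bound radioligand was separated on PEI-treated GF/B filters and counted by liquid scintillation.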

| inhibition at 1 µM [%] | Structure (SMILES) |
| --- | --- |
| 35 | CN1CCN(c2cc(N3CCc4ccc(-c5cnc(N6CCN(C(=O)OC(C)(C)C)CC6)nc5)cc4C3)nc(N)n2)CC1 [Example 8, tert-Butyl 4-(5-{2-[2-amino-6-(4-methylpiperazin-1-yl)pyrimidin-4-yl]-1,2,3,4-tetrahydroisoquinolin-7-yl}pyrimidin-2-yl)piperazine-1-carboxylate] |

same assay, conditions: histamine H4 receptor; "> a" = exceeds experiment limit

| Structure (SMILES) | IC50 [nM] |
| --- | --- |
| CC(=O)Nc1ccc(-c2ccc3c(c2)CN(c2cc(N4CCN(C)CC4)nc(N)n2)CC3)cn1 [Example 3, N-(5-{2-[2-Amino-6-(4-methylpiperazin-1-yl)pyrimidin-4-yl]-1,2,3,4-tetrahydroisoquinolin-7-yl}pyridin-2-yl)acetamide] | 31 |
| CN1CCN(c2cc(N3CCc4ccc(-c5cnn(C)c5)cc4C3)nc(N)n2)CC1 [Example 4, 4-(4-Methylpiperazin-1-yl)-6-[7-(1-methyl-1H-pyrazol-4-yl)-3,4-dihydroisoquinolin-2(1H)-yl]pyrimidin-2-amine] | 80 |
| CN1CCN(c2cc(-c3ccc4c(c3)CN(c3cc(N5CCN(C)CC5)nc(N)n3)CC4)ccn2)CC1 [Example 5, 4-(4-Methylpiperazin-1-yl)-6-[7-[2-(4-methylpiperazin-1-yl)pyridin-4-yl]-3,4-dihydroisoquinolin-2(1H)-yl]pyrimidin-2-amine] | 128 |
| CN1CCN(c2cc(N3CCc4ccc(-c5cnc(Cl)c(F)c5)cc4C3)nc(N)n2)CC1 [Example 6, 4-[7-(6-Chloro-5-fluoropyridin-3-yl)-3,4-dihydroisoquinolin-2(1H)-yl]-6-(4-methylpiperazin-1-yl)pyrimidin-2-amine] | 61 |
| CN1CCN(c2cc(N3CCc4ccc(-c5cnc(N6CCNCC6)nc5)cc4C3)nc(N)n2)CC1 [Example 9, 4-(4-Methylpiperazin-1-yl)-6-[7-(2-piperazin-1-yipyrimidin-5-yl)-3,4-dihydroisoquinolin-2(1H)-yl]pyrimidin-2-amine] | 89 |
| CCOc1ccc(Cn2cc(-c3ccc4c(c3)CN(c3cc(N5CCN(C)CC5)nc(N)n3)CC4)cn2)cn1 [Example 10, 4-[7-{1-[(6-Ethoxypyridin-3-yl)methyl]-1H-pyrazol-4-yl}-3,4-dihydroisoquinolin-2(1H)-yl]-6-(4-methylpiperazin-1-yl)pyrimidin-2-amine] | 102 |
| CN1CCN(c2cc(N3CCc4ccc(-c5cnn(C6CCN(C(=O)OC(C)(C)C)CC6)c5)cc4C3)nc(N)n2)CC1 [Example 12, tert-Butyl 4-(4-{2-[2-amino-6-(4-methylpiperazin-1-yl)pyrimidin-4-yl]-1,2,3,4-tetrahydroisoquinolin-7-yl}-1H-pyrazol-1-yl)piperidine-1-carboxylate] | 489 |
| CN1CCN(c2cc(N3CCc4ccc(-n5cc(Cl)cn5)cc4C3)nc(N)n2)CC1 [Example 14, 4-[7-(4-Chloro-1,1-pyrazol-1-yl)-3,4-dihydroisoquinolin-2(1H)-yl]-6-(4-methylpiperazin-1-yl)pyrimidin-2-amine] | 223 |
| CN1CCN(c2cc(N3CCc4ccc(Oc5ccccc5Cl)cc4C3)nc(N)n2)CC1 [Example 17, 4-[7-(2-Chlorophenoxy)-3,4-dihydroisoquinolin-2(1H)-yl]-6-(4-methylpiperazin-1-yl)pyrimidin-2-amine] | 285 |
| CN1CCN(c2cc(N3CCc4ccc(-c5ccc(C(=O)N[C@H]6CC[C@H](O)CC6)nc5)cc4C3)nc(N)n2)CC1 [Example 20, 5-{2-[2-Amino-6-(4-methylpiperazin-1-yl)pyrimidin-4-yl]-1,2,3,4-tetrahydroisoquinolin-7-yl}-N-(trans-4-hydroxycyclohexyl)pyridine-2-carboxamide] | 113 |
| CN1CCN(c2cc(N3CCc4ccc(C(=O)N(C)Cc5cccc(F)c5)cc4C3)nc(N)n2)CC1 [Example 25, 2-[2-Amino-6-(4-methylpiperazin-1-yl)pyrimidin-4-yl]-N-(3-fluorobenzyl)-N-methyl-1,2,3,4-tetrahydroisoquinoline-7-carboxamide] | 260 |
| CN1CCN(c2cc(N3CCc4ccc(C(=O)N(C)C)cc4C3)nc(N)n2)CC1 [Example 27, 2-[2-Amino-6-(4-methylpiperazin-1-yl)pyrimidin-4-yl]-N,N-dimethyl-1,2,3,4-tetrahydroisoquinoline-7-carboxamide] | 670 |
| CN1CCN(c2cc(N3CCc4ccc(C(=O)N5CCCC5)cc4C3)nc(N)n2)CC1 [Example 29, 4-(4-Methylpiperazin-1-yl)-6-[7-(pyrrolidin-1-ylcarbonyl)-3,4-dihydroisoquinolin-2 (1H)-yl]pyrimidin-2-amine] | 229 |
| CC(=O)N1CCN(c2ccc3c(c2)CN(c2cc(N4CCN(C)CC4)nc(N)n2)CC3)CC1 [Example 31, 4-[7-(4-Acetylpiperazin-1-yl)-3,4-dihydroisoquinolin-2 (1H)-yl]-6-(4-methylpiperazin-1-yl)pyrimidin-2-amine] | 299 |

Further lines, results first:

| IC50 [nM] | Structure (SMILES) |
| --- | --- |
| 39 | CN1CCN(c2cc(N3CCc4ccc(Br)cc4C3)nc(N)n2)CC1 [Example 1, 4-(7-Bromo-3,4-dihydroisoquinolin-2(1H)-yl)-6-(4-methylpiperazin-1-yl)pyrimidin-2-amine] |
| 20 | CNC(=O)c1ccc(-c2ccc3c(c2)CN(c2cc(N4CCN(C)CC4)nc(N)n2)CC3)cn1 [Example 2, 5-{2-[2-Amino-6-(4-methylpiperazin-1-yl)pyrimidin-4-yl]-1,2,3,4-tetrahydroisaquinolin-7-yl}-N-methylpyridine-2-carboxamide] |
| 76 | CN1CCN(c2cc(N3CCc4ccc(-c5cnc(C#N)c(F)c5)cc4C3)nc(N)n2)CC1 [Example 7, 5-{2-[2-Amino-6-(4-methylpiperazin-1-yl)pyrimidin-4-yl]-1,2,3,4-tetrahydroisoquinolin-7-yl}-3-fluoropyridine-2-carbonitrile] |
| > 1000 | CN1CCN(c2cc(N3CCc4ccc(-c5cnc(N6CCN(C(=O)OC(C)(C)C)CC6)nc5)cc4C3)nc(N)n2)CC1 [Example 8, tert-Butyl 4-(5-{2-[2-amino-6-(4-methylpiperazin-1-yl)pyrimidin-4-yl]-1,2,3,4-tetrahydroisoquinolin-7-yl}pyrimidin-2-yl)piperazine-1-carboxylate] |
| 110 | CN1CCN(c2cc(N3CCc4ccc(-c5cnn(C6(CC#N)CCCC6)c5)cc4C3)nc(N)n2)CC1 [Example 11, [1-(4-{2-[2-Amino-6-(4-methylpiperazin-1-yl)pyrimidin-4-yl]-1,2,3,4-tetrahydroisoquinolin-7-yl}-1,1-pyrazol-1-yl)cyclopentyl]acetonitrile] |
| 35 | CN1CCN(c2cc(N3CCc4ccc(-c5cnn(C6CCNCC6)c5)cc4C3)nc(N)n2)CC1 [Example 13, 4-(4-Methylpiperazin-1-yl)-6-[7-(1-piperidin-4-yl-1H-pyrazol-4-yl)-3,4-dihydroisoquinolin-2 (1H)-yl]pyrimidin-2-amine] |
| 145 | CN1CCN(c2cc(N3Cc4ccccc4C[C@H]3CO)nc(N)n2)CC1 [Example 15, {(3S)-2-[2-Amino-6-(4-methylpiperazin-1-yl)pyrimidin-4-yl]-1,2,3,4-tetrahydroisoquinolin-3-yl}methanol] |
| 543 | Cc1cccc(Nc2ccc3c(c2)CN(c2cc(N4CCN(C)CC4)nc(N)n2)CC3)n1 [Example 16, 2-[2-Amino-6-(4-methylpiperazin-1-yl)pyrimidin-4-yl]-N-(6-methylpyridin-2-yl)-1,2,3,4-tetrahydroisoquinolin-7-amine] |
| 65 | CN1CCN(c2cc(N3CCc4ccc(-c5ccc(C(=O)NCc6ccccn6)nc5)cc4C3)nc(N)n2)CC1 [Example 18, 5-{2-[2-Amino-6-(4-methylpiperazin-1-yl)pyrimidin-4-yl]-1,2,3,4-tetrahydroisoquinolin-7-yl}-N-(pyridin-2-ylmethyl)pyridine-2-carboxamide] |
| 110 | CN1CCN(c2cc(N3CCc4ccc(-c5ccc(C(=O)NCC(C)(C)O)nc5)cc4C3)nc(N)n2)CC1 [Example 19, 5-{2-[2-Amino-6-(4-methylpiperazin-1-yl)pyrimidin-4-yl]-1,2,3,4-tetrahydroisoquinolin-7-yl}-N-(2-hydroxy-2-methylpropyl)pyridine-2-carboxamide] |
| 181 | CN1CCN(c2cc(N3CCCc4ccc(O)cc43)nc(N)n2)CC1 [Example 21, 1-[2-Amino-6-(4-methylpiperazin-1-yl)pyrimidin-4-yl]-1,2,3,4-tetrahydroquinolin-7-ol] |
| 367 | CN1CCN(c2cc(N3CCc4ccc(Oc5ccc(C#N)c(Cl)c5)cc4C3)nc(N)n2)CC1 [Example 22, 4-({2-[2-Amino-6-(4-methylpiperazin-1-yl)pyrimidin-4-yl]-1,2,3,4-tetrahydroisoquinolin-7-yl}oxy)-2-chlorobenzonitrile] |
| 158 | CN1CCN(c2cc(N3Cc4ccccc4CC3=O)nc(N)n2)CC1 [Example 23, 2-[2-Amino-6-(4-methylpiperazin-1-yl)pyrimidin-4-yl]-1,4-dihydroisoquinolin-3(2H)-one] |
| 966 | CN1CCN(c2cc(N3CCc4ccc(C(=O)N5CCC(c6ccccc6)C5)cc4C3)nc(N)n2)CC1 (stereo not drawn) [Example 24, 4-(4-Methylpiperazin-1-yl)-6-[7-[(3-phenylpyrrolidin-1-yl)carbonyl]-3,4-dihydroisoquinolin-2(1H)-yl]pyrimidin-2-amine] |
| 244 | CN1CCN(c2cc(N3CCc4ccc(C(=O)N5Cc6ccccc6C5)cc4C3)nc(N)n2)CC1 [Example 26, 4-[7-(1,3-Dihydro-2H-isoindol-2-ylcarbonyl)-3,4-dihydroisoquinolin-2(1H)-yl]-6-(4-methylpiperazin-1-yl)pyrimidin-2-amine] |
| 754 | CN1CCN(c2cc(N3CCc4ccc(C(=O)NC5CCCC5)cc4C3)nc(N)n2)CC1 [Example 28, 2-[2-Amino-6-(4-methylpiperazin-1-yl)pyrimidin-4-yl]-N-cyclopentyl-1,2,3,4-tetrahydroisoquinoline-7-carboxamide] |
| 282 | CCOC(=O)N1CCN(c2ccc3c(c2)CN(c2cc(N4CCN(C)CC4)nc(N)n2)CC3)CC1 [Example 30, Ethyl 4-{2-[2-amino-6-(4-methylpiperazin-1-yl)pyrimidin-4-yl]-1,2,3,4-tetrahydroisoquinolin-7-yl}piperazine-1-carboxylate] |
| 178 | CN1CCN(c2cc(N3CCc4ccc(N5CCN(C(=O)c6ccco6)CC5)cc4C3)nc(N)n2)CC1 [Example 32, 4-{7-[4-(2-Furoyl)piperazin-1-yl]-3,4-dihydroisoquinolin-2(1H)-yl}-6-(4-methylpiperazin-1-yl)pyrimidin-2-amine] |
